Source: patent US20170022258A1, “PEPTIDES FOR USE IN THE TREATMENT OF IL-1 RELATED DISEASES AND CONDITIONS” (C4M PHARMACEUTICALS PTY LTD., priority 2011, published 2017)
Like-named read-outs stand apart in the source and are kept apart here. Non-standard residues stand in square brackets, D forms with d. Residues, ends and D or L forms follow the SMILES beside them. No end group written: not given here.

T1: IL-1 receptor (Homo sapiens, UniProt P14778)
T1 construct: confluent human monocytes, which express the IL-1 receptor; endogenous in cells; host or cells: human monocytes
T1 sequence (P14778 18-569): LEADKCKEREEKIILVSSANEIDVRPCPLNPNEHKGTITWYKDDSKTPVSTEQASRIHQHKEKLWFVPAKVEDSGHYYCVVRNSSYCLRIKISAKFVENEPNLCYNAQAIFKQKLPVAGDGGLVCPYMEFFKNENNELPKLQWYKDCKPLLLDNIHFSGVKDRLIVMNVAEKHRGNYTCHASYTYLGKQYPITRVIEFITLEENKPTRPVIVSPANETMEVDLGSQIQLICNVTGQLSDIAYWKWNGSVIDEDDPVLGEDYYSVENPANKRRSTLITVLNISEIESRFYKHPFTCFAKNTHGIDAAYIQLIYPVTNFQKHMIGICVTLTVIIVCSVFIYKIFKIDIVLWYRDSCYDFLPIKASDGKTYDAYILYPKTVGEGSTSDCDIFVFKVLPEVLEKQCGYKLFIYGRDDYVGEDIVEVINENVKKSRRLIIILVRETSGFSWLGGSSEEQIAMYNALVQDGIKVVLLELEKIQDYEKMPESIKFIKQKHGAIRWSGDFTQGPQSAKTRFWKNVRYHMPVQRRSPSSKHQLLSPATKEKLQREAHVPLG

T2: IL-1 receptor (IL-1R) expressed on human monocytes (human, UniProt P14778 18-569)
T2 sequence (looked up): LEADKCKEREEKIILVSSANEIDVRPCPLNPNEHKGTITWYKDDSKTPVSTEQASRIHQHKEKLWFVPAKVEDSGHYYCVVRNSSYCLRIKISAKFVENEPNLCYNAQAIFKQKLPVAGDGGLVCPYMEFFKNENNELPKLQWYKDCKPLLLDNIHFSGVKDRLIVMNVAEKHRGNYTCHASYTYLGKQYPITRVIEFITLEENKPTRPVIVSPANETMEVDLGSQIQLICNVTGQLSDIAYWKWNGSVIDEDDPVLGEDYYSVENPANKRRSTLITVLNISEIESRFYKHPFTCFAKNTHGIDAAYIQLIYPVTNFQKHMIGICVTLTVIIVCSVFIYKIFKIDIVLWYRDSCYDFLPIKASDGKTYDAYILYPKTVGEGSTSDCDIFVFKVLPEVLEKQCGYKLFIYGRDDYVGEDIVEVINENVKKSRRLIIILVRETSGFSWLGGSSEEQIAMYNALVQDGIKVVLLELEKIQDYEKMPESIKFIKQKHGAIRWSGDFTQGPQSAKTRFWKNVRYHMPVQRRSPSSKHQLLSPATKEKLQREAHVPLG


Assays:
IL-1 receptor = target: T1, IL-1 receptor; experiment: Radioligand competition binding assay (125I-labeled IL-1α) on human monocytes; settings: IL-1 binding antagonism on human monocytes; average of three measurements and standard error
Experimental: (§1) Radioligand competition binding assays were performed in 96-well plates containing confluent human monocytes, which express the IL-1 receptor. Wells were washed three times with binding buffer, and binding buffer was placed in each well. Peptides were resuspended in dimethyl sulfoxide at 20 mM and diluted in binding buffer to the desired starting concentration. Using a Beckman robotic system, five 3-fold dilutions were prepared, and peptide solution was transferred to duplicate receptor-containing wells. To each well, radioactive ^125Iodine-labeled IL-Ia (Amersham) was added to a final concentration of 40 pM, and the plates were placed on a shaking platform at 4° C. for 2 hr. Plates were washed with PBS using a plate washer, and bound ^125I-labeled IL-la was eluted for 10 min with 0.1 M NaOH and counted in a gamma counter. IC50 values were determined by fitting the data to a two-parameter logistic equation. In all cases, nonspecific binding was determined by the addition of 3 μM of recombinant IL-Ia.

[1] = tested on: IL-1 stimulation of IL-8 in human skin fibroblasts; experiment: Inhibition of IL-1 induced IL-8 in human fibroblasts; assay type: cell-based; settings: inhibition of IL-1 stimulation of IL-8 in human skin fibroblasts; average of three measurements and standard error; read-out: Binding (IC50 nM)
Experimental: Inhibition of IL-1 induced IL-8 in human fibroblasts was determined using normal human dermal fibroblast cells cultured in DMEM with 10% fetal calf serum in 48-well plates.
Twenty-four hours before initiation of the experiment, the medium was changed to DMEM with 0.2% fetal calf serum. Each peptide was added to confluent cells, which were then pulsed for 30 min with rIL-I,B (which was obtained from R & D Systems) at 50 pg/ml. The cells were washed four times with PBS, and fresh DMEM/0.2% fetal calf serum was added to each well. After 5 hr of incubation, the culture media were collected and analyzed by ELISA for IL-8 (which was obtained from R & D Systems). Maximal activation, with IL-1 only, was 2530±13 pg/ml of IL-8. Nonspecific activation, determined in the presence of 1000-fold excess IL-1Ra, was 30±9 pg/ml of IL-8 (n=3).

[2] = Solubility of peptide under different solvent conditions; assay type: physicochemical; settings: 30 min room temperature
Experimental: 100 mg of each peptide was added to 100 ml total of water plus the solvents, and the solution was gently agitated for 30 min at room temperature.

[3] = Stability of peptide once dissolved in solution (1 month); assay type: physicochemical; settings: 1 mg in 5 ml water, bicarbonate and benzyl alcohol (19, 4) or methanol (13, 14); for Stability of peptide once dissolved in solution (at 1 month), Room Temp (month): room temperature
Experimental: Each of the peptides having the sequences 13, 14, 19 and 4 were tested to determine their stability in a solution containing (preferred composition above) water, bicarbonate and either benzyl alcohol (peptide 19 and 4) or methanol (peptide 13 and 14). Each of the peptides were held for a period of 1 month at either 4° C. or at room temperature.
1 mg of each peptide was added to the water, bicarbonate and either benzyl alcohol or methanol solution and the solution was gently agitated for 1 hour at room temperature before standing at either 4° C. or at room temperature for a period of 1 month.

[4] = Human plasma stability trials; assay type: in vitro ADME; settings: 37° C., 12 hours, read-out: ½ Life human plasma
Experimental: 1 mg of each peptide was added to the plasma and the solution was gently agitated for 2 minutes at room temperature before standing at 37° C. for a period of 12 hours.

[5] = tested on: thoroughbred having equine laminitis; experiment: Effect of peptides on equine laminitis (Obel Lameness Grades); assay type: in vivo, horse; settings: for Change in Obel Score: 1 mg intravenously, before vs 24 hours after injection, most negative = greatest improvement; for Duration (days) of effect on laminitis: single 1 mg intravenous, averaged, report by veterinarians
Experimental: Each of the peptides having the sequences 13, 14, 19 and 4 were also tested to determine their effect on equine laminitis. Each peptide was administered intravenously to a thoroughbred having equine laminitis. The peptides were prepared as compositions containing 1 mg of peptide dissolved in 5 ml of a solution comprising water, bicarbonate and either benzyl alcohol or methanol. The effect of the peptides on equine laminitis was judged by the Obel Lameness Grades, which is a system of rating degrees of lameness resulting from laminitis. […] Obel Grade III horses do resist having a foreleg lifted, and are reluctant to walk. Obel Grade IV horses will walk only if forced. The Obel Score for each of the horses was measured before administration of the peptide and 24 hours after injection of the peptide. […] The effect in reducing laminitis which was caused by one single injection of the peptides on laminitis was short-lived. Therefore, the duration of the effect of the peptides in reducing laminitis was further assessed by attending veterinarians.

[6] = target: T2, IL-1 receptor (IL-1R) expressed on …; experiment: cell-based or functional assay
[7] = target: T2, IL-1 receptor (IL-1R) expressed on …; experiment: radioligand competition, 40 pM 125I-IL-1α on confluent human monocytes
Experimental: as §1, with “¹²⁵Iodine-labeled” for “^125Iodine-labeled”, “¹²⁵I-labeled” for “^125I-labeled”, “IC₅₀” for “IC50”

[8] = target: IL-1 receptor (IL-1R) expressed on human monocytes (human) (UniProt P14778); experiment: cell-based or functional assay
[9] = target: IL-1 receptor (IL-1R) expressed on human monocytes (human) (UniProt P14778); experiment: radioligand competition, 40 pM 125I-IL-1α on confluent human monocytes
[10] = benzyl alcohol (0.1-1%) in water, benzyl alcohol (0.1-1%), 100 mg peptide in 100 ml, read-out: Solubility: Benzyl Alcohol
[11] = hydrochloric acid (0.1-1%) in water, hydrochloric acid (0.1-1%), 100 mg peptide in 100 ml water plus solvent, read-out: Solubility: Acid
[12] = methanol (1-10%) in water, methanol (1-10%), 100 mg peptide in 100 ml, read-out: Solubility: Methanol
[13] = sodium bicarbonate (0.1-1%) in water, sodium bicarbonate (0.1-1%), 100 mg peptide in 100 ml, read-out: Solubility: Base

Molecule	solubility at 30 min [2, 10]	solubility at 30 min [2, 11]	solubility at 30 min [2, 13]	Stability of peptide once dissolved in solution (at 1 month), 4° C. (month) [3]	Stability of peptide once dissolved in solution (at 1 month), Room Temp (month) [3]	half-life [4]	IC50, in vitro inhibition of IL-1 stimulation of IL-8 in human skin fibroblasts (rIL-1β 50 pg/ml, IL-8 ELISA) [6]	IC50 [7]	IC50 [1]	Change in Obel Score [5]	Duration (days) of effect on laminitis [5]	other results
CC(=O)N[C@@H](CCC(=O)O)C(=O)N[C@H](C(=O)N1CCC[C@H]1C(=O)N[C@@H](Cc1ccccc1)C(=O)N[C@H](C(=O)N[C@@H](Cc1c[nH]c2ccccc12)C(=O)N[C@@H](CCC(=O)O)C(=O)N[C@@H](CCC(=O)O)C(=O)N[C@@H](CO)C(=O)N[C@@H](CC(N)=O)C(=O)N[C@@H](C)C(=O)N[C@@H](Cc1ccc(O)cc1)C(=O)N[C@@H](Cc1ccc(O)cc1)C(=O)N[C@@H](Cc1c[nH]c2ccccc12)C(=O)N[C@@H](CCC(N)=O)C(=O)N1CCC[C@H]1C(=O)N[C@@H](Cc1ccc(O)cc1)C(=O)N[C@@H](C)C(=O)N[C@@H](CC(C)C)C(=O)N1CCC[C@H]1C(=O)N[C@@H](CC(C)C)C(=O)O)[C@@H](C)O)[C@@H](C)O [SEQ ID NO. 13, reference compound] (Ac-ETPFTWEESNAYYWQPYALPL-OH; C-terminus assumed)	< 1000 µg/mL	< 1000 µg/mL	< 1000 µg/mL	21%	1%	46 min	–	–	11 nM	−0.5	1 days	IC50 (IL-1 receptor): 11 nM; solubility at 30 min [2, 12]: > 1000 µg/mL
CC(=O)N[C@H](CC(C)C)C(=O)N1CCC[C@@H]1C(=O)N[C@H](CC(C)C)C(=O)N[C@H](C)C(=O)N[C@H](Cc1ccc(O)cc1)C(=O)N1CCC[C@@H]1C(=O)N[C@H](CCC(N)=O)C(=O)N[C@H](Cc1c[nH]c2ccccc12)C(=O)N[C@H](Cc1ccc(O)cc1)C(=O)N[C@H](Cc1ccc(O)cc1)C(=O)N[C@H](C)C(=O)N[C@H](CC(N)=O)C(=O)N[C@H](CO)C(=O)N[C@H](CCC(=O)O)C(=O)N[C@H](CCC(=O)O)C(=O)N[C@H](Cc1c[nH]c2ccccc12)C(=O)N[C@@H](C(=O)N[C@H](Cc1ccccc1)C(=O)N1CCC[C@@H]1C(=O)N[C@@H](C(=O)N[C@H](CCC(=O)O)C(=O)O)[C@H](C)O)[C@H](C)O [SEQ ID NO. 14] (Ac-[dL][dP][dL][dA][dY][dP][dQ][dW][dY][dY][dA][dN][dS][dE][dE][dW][dT][dF][dP][dT][dE]-OH; C-terminus assumed)	< 1000 µg/mL	< 1000 µg/mL	< 1000 µg/mL	78%	18%	333 min	–	–	11 nM	−1.1	2 days	IC50 (IL-1 receptor): 9.2 nM; solubility at 30 min [2, 12]: > 1000 µg/mL
CC(=O)N[C@@H](Cc1ccccc1)C(=O)N[C@@H](CCC(=O)O)C(=O)N[C@@H](Cc1c[nH]c2ccccc12)C(=O)N[C@H](C(=O)N1CCC[C@H]1C(=O)NCC(=O)N[C@@H](Cc1ccc(O)cc1)C(=O)N[C@@H](Cc1c[nH]c2ccccc12)C(=O)N[C@@H](CCC(N)=O)C(=O)N1CCC[C@H]1C(=O)N[C@@H](Cc1ccc(O)cc1)C(=O)N[C@@H](C)C(=O)N[C@@H](CC(C)C)C(=O)N1CCC[C@H]1C(=O)N[C@@H](CC(C)C)C(=O)O)[C@@H](C)O [SEQ ID NO. 19, Ac FEWTPGYWQPYALPL, reference compound] (Ac-FEWTPGYWQPYALPL-OH; C-terminus assumed)	> 1000 µg/mL	< 1000 µg/mL	< 1000 µg/mL	95%	48%	49 min	–	–	10 nM	−2.1	2 days	–
Ac-[dL][dP][dL][dA][dY][dP][dQ][dW][dY][dR][dE]G[dS][dQ][dR][dW][dR][dD][dY]G[dD] (not fully specified (residues 12, 20); printed as Ac-LPLAYPQWYREGSQRWRDYGD) [peptide of SEQ ID NO: 21 (Ac-…, D-amino acids)]	–	–	–	–	–	–	–	–	–	–	–	IC50, in vitro inhibition of IL-1 stimulation of IL-8 in human skin fibroblasts (rIL-1β 50 pg/ml, IL-8 ELISA) [8]: 730 nM; IC50 [9]: 240 nM
Ac-FTWEESNAYYWQPYALPL (also called peptide 15) [peptide of SEQ ID NO: 15 (Ac-FTWEESNAYYWQPYALPL)]	–	–	–	–	–	–	16 nM	20 nM	–	–	–	–

More lines, main results first:

solubility at 30 min [2, 10]	solubility at 30 min [2, 11]	solubility at 30 min [2, 13]	Stability of peptide once dissolved in solution (at 1 month), 4° C. (month) [3]	Stability of peptide once dissolved in solution (at 1 month), Room Temp (month) [3]	half-life [4]	IC50, in vitro inhibition of IL-1 stimulation of IL-8 in human skin fibroblasts (rIL-1β 50 pg/ml, IL-8 ELISA) [6]	IC50 [7]	Molecule	IC50 [1]	Change in Obel Score [5]	Duration (days) of effect on laminitis [5]	other results
–	–	–	–	–	–	76 nM	7.6 nM	Ac-TANVSSFEWTPGYWQPYALPL (also called peptide 17) [peptide of SEQ ID NO: 17 (Ac-TANVSSFEWTPGYWQPYALPL)]	–	–	–	–
–	–	–	–	–	–	10 nM	7.1 nM	Ac-FEWTPGYWQPYALPL (also called peptide 19) [peptide of SEQ ID NO: 19 (Ac FEWTPGYWQPYALPL)]	–	–	–	–
–	–	–	–	–	–	19 nM	8.1 nM	Ac-DGYDRWRQSGERYWQPYALPL (also called peptide 20) [peptide of SEQ ID NO: 20 (Ac-DGYDRWRQSGERYWQPYALPL)]	–	–	–	–
